Results taken from patent US5985905A, “Indole derivatives for the treatment of osteoporosis” (priority 1996, dated 1999).
Blank lines part the entries; values can stand above or below the molecule they belong to.

Legend:
osteoclast proton pump = conditions: avian osteoclast membrane vesicles, ATP-driven acidification; cited from earlier work
[1] = biological target: bafilomycin-sensitive ATPase in chicken osteoclasts; assay: Inhibition of bafilomycin-sensitive ATPase activity in purified osteoclast membrane vesicles (Pi release); format: biochemical; conditions: chicken osteoclast membranes, read-out: IC50 (μM) APase assay
Experimental: Preparation of crude bone microsomes from calcium-starved egg-laying hens. Vesicles were prepared from medullar bone obtained from tibiae and femurs of egg-laying hens which were calcium-starved for at least 15 days. Briefly, bone fragments were scraped with a 24 scalpel blade, suspended in 40 ml of isolation medium (0.2 M sucrose, 50 mM KCl, 10 mM Hepes, 1 mM EGTA, 2 mM dithiotheitrol, pH 7.4) and filtered through a 100 μm pore size nylon mesh. The whole procedure was performed at 4° C. After homogenisation in a potter (20 strokes) in 40 ml of isolation medium an initial centrifugation (6,500×gmax ×20 min) was performed to remove mitochondria and lysosomes. […] The protein content was determined using a Biorad colourimetric kit according to Bradford [M. Bradford, Ana. […]
Inhibition of bafilomycin-sensitive ATPase activity was assessed in purified membrane vesicles by measuring the release of inorganic phosphate (Pi) during 30 min of incubation at 37° C. in a 96-well plate either in the presence or in the absence of bafilomycin Al. […] Absorbance at 650 nm was measured after 2 min using a microplate reader. Results are expressed as μmol (Pi)×mg protein^-1 ×hour^-1 and, for each experiment, represent the mean±sem of triplicates.

osteoclast cultures = conditions: cited from earlier work

Compound: COc1ccc2[nH]c([S+]([O-])Cc3ncc(C)c(OC)c3C)nc2c1 (centres unmarked) [omeprazole]
inhibition of proton transport (osteoclast proton pump): not inhibited

IC50 [1]: 8.5 µM
Compound: O=C1OCCO/C1=C\C=C\c1cc2cc(Cl)c(Cl)cc2[nH]1 [Example 1, (2Z,4E) 3-[3-(5,6-Dichloro-1H-indol-2-yl)-2-propenyliden]-1,4-dioxan-2-one]

Compound: C[C@@H]1O[C@@H](O[C@H]2C[C@@H](O)[C@]3(CO)[C@H]4[C@H](O)C[C@]5(C)[C@@H](C6=CC(=O)OC6)CC[C@]5(O)[C@@H]4CC[C@]3(O)C2)[C@H](O)[C@H](O)[C@H]1O [ouabain]
inhibition of proton transport (osteoclast proton pump): not inhibited

Compound: Cc1nc2c(OCc3ccccc3)cccn2c1CC#N [SCH 28080]
inhibition of proton transport (osteoclast proton pump): not inhibited

Compound: [Na+].[Na+].[Na+].[O]=[V]([O-])([O-])[O-] [sodium orthovanadate]
inhibition of proton transport (osteoclast proton pump): not inhibited

Compound: CCN1C(=O)C=CC1=O [N-ethylmaleimide (NEM), N-ethylmaleimide]
inhibition of proton transport (osteoclast proton pump): inhibited

Compound: CO/C1=C\C(C)=C\[C@@H](C)[C@@H](O)[C@@H](C)C/C(C)=C/C=C/[C@H](OC)[C@@H]([C@@H](C)[C@@H](O)[C@H](C)[C@@]2(O)C[C@@H](O)[C@H](C)[C@@H](C(C)C)O2)OC1=O [bafilomycin A1]
inhibition of bone resorption (osteoclast cultures): able to inhibit bone resorption | inhibition of proton transport (osteoclast proton pump): inhibited
